Results on one molecule are retold here after US9938240B2, “Fluorinated derivatives of 3-hydroxypyridin-4-ones” (Apotex Technologies Inc., priority 2009, dated 2018).

A short description of series [1]: Fe speciation plot (HySS). Type of series: physicochemical. The settings on record: Fe:ligand 1:10, [Fe]=1×10^−6 M, [L]=1×10^−5 M. An excerpt:
Example 54 illustrates the speciation distribution of several amino fluorinated derivatives of 3-hydroxypyridin-4-(1H)-ones of the invention. The speciation plot (distribution of ferric chelate species) of two compounds of formula I (Apo7067 and Apo7323) at pH 7.4 is provided in the following table.
(§1) After obtaining three pKa values for Apo7323 (ligand), three pKa values for the Fe-Apo7323 complex, and the log β values for Fe-Apo7323 as shown in the following table, a speciation plot (FIG. 14) was constructed using the HySS software program. pFe was also calculated using the HySS software.

Series [2] can be described thus: pKa determination by spectrophotometric titration. Format: physicochemical. As for the experimental part:
The pKa values of ligands can be determined by spectrophotometric titration when both the conjugated acid and base absorb in the UV-visible region. In a typical experiment, the sample solution was prepared by the following method: Apo7041 stock solution (12.74 mg) was weighed into a 10 mL volumetric flask, and 0.1 M NaCl solution was added to volume. The mixture was sonicated and voltexed to give a clear colorless solution. The concentration of Apo7041 of this stock solution is 5.1×10^−3 M.
Apo7041 sample solution: 727 μL of the above stock solution was transferred into a 50 mL volumetric flask by using a 1000 μL digital pipet, and 0.1 M NaCl was added to volume. The resulting solution was vortexed to mix to give a sample solution. The concentration of Apo7041 of this sample solution is 7.4×10^−5 M. 20 mL of the sample solution was transferred into a 35 mL beaker by using a 10 mL digital pipet. The sample solution was circulated between the beaker and the flow cell using a sipper system.
The sample solution was titrated against standard hydrochloric acid solutions at 22° C. to reach pH 1.11. After each addition of acid the solution was allowed to equilibrate until a constant pH reading was reached. The pH and the UV-Vis spectrum were recorded for each measurement. The solution was titrated until there was no obvious change in the spectra after several subsequent additions of acid. Thus, 30 measurements were recorded.
The resulting data set was then analyzed using pHAB (Peter Gans, University of Leeds). The pKa values were obtained using the model: LH+H^+⇄LH2^+, and LH2^++H^+⇄LH3^2+ (pKa3). Thus, Apo7041 has pKa2=3.51, and pKa3=1.23 as determined spectrophotometrically.
The pKa values of Apo7323 were determined by spectrophotometric titration using an Agilent 8453 UV-visible spectroscopy system (see Example 26).

Series [3] can be described thus: Oral cassette dosing PK/BBB studies. Format: in vivo, male Sprague-Dawley rats. As for the experimental part: In-vivo pharmacokinetic (PK) and blood brain barrier (BBB) studies were conducted in male Sprague-Dawley rats using cassette dosing via oral administration. […] No. 15, pp. 652-658.
Series [4] is described as follows: Stepwise formation constants for Fe-ligand system by titration in 0.1M NaCl. Type of series: physicochemical. Here is the method: Stepwise formation constants for M^n+-ligand systems were determined by spectrophotometric titration when metal complexes have a strong absorbance in the visible region due to ligand to metal charge transfer.
In a typical experiment, the sample solution was prepared according to the following procedure: compound Apo7041 (12.96 mg) was weighed into a 50 mL volumetric flask, and about 40 mL of 0.1 M NaCl was added. The mixture was sonicated for 10 min to give a clear colorless solution. The iron stock solution (atomic absorption standard, Aldrich, 565 μL, 10.00 μmol) was pipetted into the solution, followed by the addition of 1.000 N NaOH (170 μL). More of the 0.1 M NaCl was added to volume and the resulting solution was vortexed to mix. The molar ratio between the total iron and the total Apo7041 was 1/5.1. The mixture was vortexed at rt for 1 h. 20 mL of the sample solution was transferred into a 35 mL beaker by using a 10 mL digital pipet. The sample solution was circulated between the beaker and the flow cell using a sipper system. The sample solution was titrated against hydrochloric acid solutions at 22° C. until the pH reached 0.021. After each addition of acid, the solution was allowed to equilibrate until a constant pH reading was reached. The pH and the UV-Vis spectrum were recorded for each measurement. For each measurement enough acid was added so that there was a slight decrease in the absorbance of the spectrum. Altogether, 68 measurements were taken to finish the experiment.
The resulting data set was then analyzed using pHAB. The formation constants for Fe-Apo7041 system were optimized using the model shown in the first column of the table.
pM^n+ is defined as −log [M(H2O)m]^n+ at physiological conditions, i.e.: pH 7.4, a ligand concentration of 10 μM, and a metal concentration of 1 μM. To calculate pM^n+ for a MLn system, βn and pKa values are needed (βn are the formation constants for M^n++n L^−⇄MLn; pKa are the equilibrium constants for L^−+n H^+⇄LHn^(n-1)+). The pM^n+ is calculated using the HySS software (HYSS© 2000 Protonic Software).
The log β values of the Fe-Apo7323 system were determined by spectrophotometric titration using an Agilent 8453 UV-visible spectroscopy system (see Example 29B). The sample solution was a mixture of Fe^3+ (2×10^−4 M) and Apo7323 (1×10^−3 M) in 0.1 N NaCl aqueous solvent. The titration data in a pH range of 3.408 to 0.655 were fitted with pHAB using the model shown in FIG. 1 to obtain Log β111, Log β122, and Log β133.
The sample solution was a mixture of Fe^3+ (6×10^−3M) and Apo7323 (1.8×10^−2M) in 0.1 N NaCl aqueous solvent. The titration started at pH 1.72 and ended at pH 11.5 using 3 M NaOH as the titrant. The titration data in a pH range of 3 to 10 were fitted with Hyperquad2000 software using the model:
[drawing 175] where 133 is the species (FeL3H3)^3+, 132 is the species is (FeL3H2)^2+, 131 is the species (FeL3H)^+, and 130 is the species FeL3.
as §1

The mark [5] stands for this setting: cumulative ligand protonation, Example 53.
The mark [6] stands for this setting: ligand, spectrophotometric titration, Example 53.
The mark [7] stands for this setting: 0.1 M NaCl, spectrophotometric titration.
Setting [8] is: stepwise constant, Fe-ligand system, Example 53.

Structures are written as SMILES.

Consider `CN(C)Cc1c(O)c(=O)ccn1CC(F)(F)F` [Apo7067, 2-[(dimethylamino)methyl]-3-hydroxy-1-(2,2,2-trifluoroethyl)pyridin-4(1H)-one], for which, in series [1], the “% FeL3H2 (species 132) at pH 7.4” value is 24.6%, the “% FeL3H3 (species 133) at pH 7.4” value is 1.2% and the “% FeL3H (species 131) at pH 7.4” value was found to be 61.8%. Besides, the pKa – broadly, the pH at which an ionisable group is half protonated – in series [2] (0.1 M NaCl solution, amino group of the ligand, read-out: pKa (amine)) was found to be 6.1. In series [2] (setting [5]), the Logβ011 was 9.6, the Logβ012 was found to be 15.7 and the Logβ013 was 16.5. Moreover, in series [2] (setting [6]), the “pKa1(L)” value came to 9.6, the “pKa2(L)” value is 6.1 and the “pKa3(L)” value stood at 0.8. In series [3] (cassette dosing BBB studies in rats, in words), the BBB penetration entry is “readily penetrates the BBB”. Also, in series [3] (oral cassette dosing, male Sprague-Dawley rats, AUC normalized to 1 mg/kg dose), the “AUC brain*” value was 740 ng·h/mL. Also, the Kp in series [3] (rat, brain and plasma, oral cassette dosing, male Sprague-Dawley rats, read-out: AUC brain/AUC plasma) was determined as 1.5. Besides, the AUC (commonly the area under the concentration-time curve, a measure of exposure) in series [3] (rat, plasma, oral cassette dosing, male Sprague-Dawley rats, AUC normalized to 1 mg/kg dose) amounted to 500 ng·h/mL. For the same molecule, in series [4] (setting [7]), the “Log β111 (Fe3+)” value worked out at 20.0, the “Log β122 (Fe3+)” value was found to be 38.7 and the “Log β133 (Fe3+)” value stood at 55.7. For the same molecule, in series [4] (Example 53: Log β131 − pKa1(C)), the “Log β130 (Fe3+)” value worked out at 34.5. Also, in series [4] (Example 53: Log β132 − pKa2(C)), the “Log β131 (Fe3+)” value amounted to 42.6. For the same molecule, the “Log β132 (Fe3+)” value in series [4] (Example 53: Log β133 − pKa3(C)) was 49.6. For the same molecule, in series [4] (setting [8]), the K111 is given as 20.0, the K122 came out at 18.7 and the K133 was 17.0.
